Experiments:
Format in all cases: in vivo
Details in all cases: 250 g/ha, evaluated after 13 days
[1] = system: Amaranthus retoflexus (AMARE); assay: Post-emergence Test, glasshouse, AMARE
Experimental: (§1) Seeds of a variety of test species are sown in standard soil in pots Amaranthus retoflexus (AMARE), Echinochloa crus-galli (ECHCG), Setaria faberi (SETFA)). After cultivation for one day (pre-emergence) or after 8 days cultivation (post-emergence) under controlled conditions in a glasshouse (at 24/16° C., day/night; 14 hours light; 65% humidity), the plants are sprayed with an aqueous spray solution derived from the formulation of the technical active ingredient in acetone/water (50:50) solution containing 0.5% Tween™ 20 (polyoxyethelyene sorbitan monolaurate, CAS RN 9005-64-5). Compounds are applied at 250 g/ha unless otherwise stated. The test plants are then grown in a glasshouse under controlled conditions in a glasshouse (at 24/16° C., day/night; 14 hours light; 65% humidity) and watered twice daily. After 13 days for pre- and post-emergence, the test is evaluated for the percentage damage caused to the plant. The biological activities are shown in the following table on a five-point scale (5=81-100%; 4=61-80%; 3=41-60%; 2=21-40%; 1=0-20%).

[2] = system: ABUTH; assay: Post-emergence Test, glasshouse, ABUTH
Experimental: as §1

[3] = system: Setaria faberi (SETFA); assay: Post-emergence Test, glasshouse, SETFA
Experimental: as §1

[4] = system: Echinochloa crus-galli (ECHCG); assay: Post-emergence Test, glasshouse, ECHCG
Experimental: as §1

[5] = system: IPOHE; assay: Post-emergence Test, glasshouse, IPOHE
Experimental: as §1

[6] = system: Amaranthus retoflexus (AMARE); assay: Pre-emergence Test, glasshouse, AMARE
Experimental: as §1

[7] = system: ABUTH; assay: Pre-emergence Test, glasshouse, ABUTH
Experimental: as §1

[8] = system: Setaria faberi (SETFA); assay: Pre-emergence Test, glasshouse, SETFA
Experimental: as §1

[9] = system: Echinochloa crus-galli (ECHCG); assay: Pre-emergence Test, glasshouse, ECHCG
Experimental: as §1

[10] = system: IPOHE; assay: Pre-emergence Test, glasshouse, IPOHE
Experimental: as §1

FC(F)(F)CCCn1ncc2cccc(Oc3ncc(Cl)cn3)c21 [Compound 1.001, 7-(5-chloropyrimidin-2-yl)oxy-1-(4,4,4-trifluorobutyl)indazole]
percentage damage caused to the plant, five-point scale, AMARE [1]: 2 (2=21-40%) | percentage damage caused to the plant, five-point scale, ABUTH [2]: 4 (4=61-80%) | percentage damage caused to the plant, five-point scale, SETFA [3]: 4 (4=61-80%) | percentage damage caused to the plant, five-point scale, ECHCG [4]: 3 (3=41-60%) | percentage damage caused to the plant, five-point scale, IPOHE [5]: 1 (1=0-20%) | percentage damage caused to the plant, five-point scale, AMARE [6]: 4 (4=61-80%) | percentage damage caused to the plant, five-point scale, ABUTH [7]: 4 (4=61-80%) | percentage damage caused to the plant, five-point scale, SETFA [8]: 5 (5=81-100%) | percentage damage caused to the plant, five-point scale, ECHCG [9]: 5 (5=81-100%) | percentage damage caused to the plant, five-point scale, IPOHE [10]: 1 (1=0-20%)

Fc1cc(Cl)cnc1Oc1cccc2cnn(CCCC(F)(F)F)c12 [Compound 1.002]
percentage damage caused to the plant, five-point scale, AMARE [1]: 2 (2=21-40%) | percentage damage caused to the plant, five-point scale, ABUTH [2]: 2 (2=21-40%) | percentage damage caused to the plant, five-point scale, SETFA [3]: 3 (3=41-60%) | percentage damage caused to the plant, five-point scale, ECHCG [4]: 3 (3=41-60%) | percentage damage caused to the plant, five-point scale, IPOHE [5]: 1 (1=0-20%) | percentage damage caused to the plant, five-point scale, AMARE [6]: 1 (1=0-20%) | percentage damage caused to the plant, five-point scale, ABUTH [7]: 1 (1=0-20%) | percentage damage caused to the plant, five-point scale, SETFA [8]: 2 (2=21-40%) | percentage damage caused to the plant, five-point scale, ECHCG [9]: 2 (2=21-40%) | percentage damage caused to the plant, five-point scale, IPOHE [10]: 1 (1=0-20%)

FC(F)(F)CCCn1ccc2cccc(Oc3ncc(Cl)cn3)c21 [Compound 1.003]
percentage damage caused to the plant, five-point scale, AMARE [1]: 3 (3=41-60%) | percentage damage caused to the plant, five-point scale, ABUTH [2]: 2 (2=21-40%) | percentage damage caused to the plant, five-point scale, SETFA [3]: 1 (1=0-20%) | percentage damage caused to the plant, five-point scale, ECHCG [4]: 1 (1=0-20%) | percentage damage caused to the plant, five-point scale, IPOHE [5]: 2 (2=21-40%) | percentage damage caused to the plant, five-point scale, AMARE [6]: 1 (1=0-20%) | percentage damage caused to the plant, five-point scale, ABUTH [7]: 1 (1=0-20%) | percentage damage caused to the plant, five-point scale, SETFA [8]: 1 (1=0-20%) | percentage damage caused to the plant, five-point scale, ECHCG [9]: 1 (1=0-20%) | percentage damage caused to the plant, five-point scale, IPOHE [10]: 1 (1=0-20%)

FC(F)(F)CCCn1ncc2c(Cl)cc(Cl)c(Oc3ncc(Cl)cn3)c21 [Compound 1.018]
percentage damage caused to the plant, five-point scale, AMARE [1]: 1 (1=0-20%) | percentage damage caused to the plant, five-point scale, ABUTH [2]: 1 (1=0-20%) | percentage damage caused to the plant, five-point scale, SETFA [3]: 1 (1=0-20%) | percentage damage caused to the plant, five-point scale, ECHCG [4]: 1 (1=0-20%) | percentage damage caused to the plant, five-point scale, IPOHE [5]: 1 (1=0-20%) | percentage damage caused to the plant, five-point scale, ABUTH [7]: 1 (1=0-20%) | percentage damage caused to the plant, five-point scale, SETFA [8]: 1 (1=0-20%) | percentage damage caused to the plant, five-point scale, ECHCG [9]: 1 (1=0-20%) | percentage damage caused to the plant, five-point scale, IPOHE [10]: 1 (1=0-20%)

FC(F)(F)CCCn1nc(C(F)(F)F)c2cccc(Oc3ncc(Cl)cn3)c21 [Compound 1.022, 7-(5-chloropyrimidin-2-yl)oxy-1-(4,4,4-trifluorobutyl)-3-(trifluoromethyl)indazole]
percentage damage caused to the plant, five-point scale, AMARE [1]: 5 (5=81-100%) | percentage damage caused to the plant, five-point scale, ABUTH [2]: 5 (5=81-100%) | percentage damage caused to the plant, five-point scale, SETFA [3]: 5 (5=81-100%) | percentage damage caused to the plant, five-point scale, IPOHE [5]: 4 (4=61-80%) | percentage damage caused to the plant, five-point scale, AMARE [6]: 5 (5=81-100%) | percentage damage caused to the plant, five-point scale, ABUTH [7]: 4 (4=61-80%) | percentage damage caused to the plant, five-point scale, SETFA [8]: 5 (5=81-100%) | percentage damage caused to the plant, five-point scale, ECHCG [9]: 5 (5=81-100%) | percentage damage caused to the plant, five-point scale, IPOHE [10]: 4 (4=61-80%)

FC(F)(F)CCCn1nc(Cl)c2c(Cl)ccc(Oc3ncc(Cl)cn3)c21 [Compound 1.026]
percentage damage caused to the plant, five-point scale, AMARE [1]: 5 (5=81-100%) | percentage damage caused to the plant, five-point scale, ABUTH [2]: 4 (4=61-80%) | percentage damage caused to the plant, five-point scale, SETFA [3]: 5 (5=81-100%) | percentage damage caused to the plant, five-point scale, IPOHE [5]: 2 (2=21-40%) | percentage damage caused to the plant, five-point scale, AMARE [6]: 5 (5=81-100%) | percentage damage caused to the plant, five-point scale, ABUTH [7]: 2 (2=21-40%) | percentage damage caused to the plant, five-point scale, SETFA [8]: 3 (3=41-60%) | percentage damage caused to the plant, five-point scale, ECHCG [9]: 5 (5=81-100%) | percentage damage caused to the plant, five-point scale, IPOHE [10]: 1 (1=0-20%)

FC(F)(F)CCCn1nc(Cl)c2c(Cl)cc(Cl)c(Oc3ncc(Cl)cn3)c21 [Compound 1.027]
percentage damage caused to the plant, five-point scale, AMARE [1]: 4 (4=61-80%) | percentage damage caused to the plant, five-point scale, ABUTH [2]: 2 (2=21-40%) | percentage damage caused to the plant, five-point scale, SETFA [3]: 3 (3=41-60%) | percentage damage caused to the plant, five-point scale, ECHCG [4]: 4 (4=61-80%) | percentage damage caused to the plant, five-point scale, IPOHE [5]: 1 (1=0-20%) | percentage damage caused to the plant, five-point scale, AMARE [6]: 4 (4=61-80%) | percentage damage caused to the plant, five-point scale, ABUTH [7]: 1 (1=0-20%) | percentage damage caused to the plant, five-point scale, SETFA [8]: 1 (1=0-20%) | percentage damage caused to the plant, five-point scale, IPOHE [10]: 1 (1=0-20%)

FC(F)(F)CCCn1nc(Cl)c2c(Br)ccc(Oc3ncc(Cl)cn3)c21 [Compound 1.028]
percentage damage caused to the plant, five-point scale, AMARE [1]: 5 (5=81-100%) | percentage damage caused to the plant, five-point scale, ABUTH [2]: 2 (2=21-40%) | percentage damage caused to the plant, five-point scale, SETFA [3]: 3 (3=41-60%) | percentage damage caused to the plant, five-point scale, IPOHE [5]: 1 (1=0-20%) | percentage damage caused to the plant, five-point scale, AMARE [6]: 4 (4=61-80%) | percentage damage caused to the plant, five-point scale, ABUTH [7]: 1 (1=0-20%) | percentage damage caused to the plant, five-point scale, SETFA [8]: 2 (2=21-40%) | percentage damage caused to the plant, five-point scale, IPOHE [10]: 1 (1=0-20%)

N#Cc1ccc(Oc2ncc(Cl)cn2)c2c1c(Cl)nn2CCCC(F)(F)F [Compound 1.029]
percentage damage caused to the plant, five-point scale, AMARE [1]: 4 (4=61-80%) | percentage damage caused to the plant, five-point scale, ABUTH [2]: 1 (1=0-20%) | percentage damage caused to the plant, five-point scale, SETFA [3]: 1 (1=0-20%) | percentage damage caused to the plant, five-point scale, IPOHE [5]: 1 (1=0-20%) | percentage damage caused to the plant, five-point scale, AMARE [6]: 2 (2=21-40%) | percentage damage caused to the plant, five-point scale, ABUTH [7]: 1 (1=0-20%) | percentage damage caused to the plant, five-point scale, SETFA [8]: 1 (1=0-20%) | percentage damage caused to the plant, five-point scale, IPOHE [10]: 1 (1=0-20%)

N#Cc1cc(Oc2ncc(Cl)cn2)c2c(c1)c(Cl)nn2CCCC(F)(F)F [Compound 1.030]
percentage damage caused to the plant, five-point scale, AMARE [1]: 4 (4=61-80%) | percentage damage caused to the plant, five-point scale, ABUTH [2]: 1 (1=0-20%) | percentage damage caused to the plant, five-point scale, SETFA [3]: 2 (2=21-40%) | percentage damage caused to the plant, five-point scale, ECHCG [4]: 2 (2=21-40%) | percentage damage caused to the plant, five-point scale, IPOHE [5]: 1 (1=0-20%) | percentage damage caused to the plant, five-point scale, AMARE [6]: 1 (1=0-20%) | percentage damage caused to the plant, five-point scale, ABUTH [7]: 1 (1=0-20%) | percentage damage caused to the plant, five-point scale, SETFA [8]: 1 (1=0-20%) | percentage damage caused to the plant, five-point scale, IPOHE [10]: 1 (1=0-20%)

Fc1cc(Cl)cnc1Oc1cccc2c(Cl)nn(CCCC(F)(F)F)c12 [Compound 1.032]
percentage damage caused to the plant, five-point scale, AMARE [1]: 5 (5=81-100%) | percentage damage caused to the plant, five-point scale, ABUTH [2]: 3 (3=41-60%) | percentage damage caused to the plant, five-point scale, ECHCG [4]: 3 (3=41-60%) | percentage damage caused to the plant, five-point scale, IPOHE [5]: 3 (3=41-60%) | percentage damage caused to the plant, five-point scale, AMARE [6]: 3 (3=41-60%) | percentage damage caused to the plant, five-point scale, ABUTH [7]: 1 (1=0-20%) | percentage damage caused to the plant, five-point scale, SETFA [8]: 4 (4=61-80%) | percentage damage caused to the plant, five-point scale, ECHCG [9]: 3 (3=41-60%) | percentage damage caused to the plant, five-point scale, IPOHE [10]: 1 (1=0-20%)

Source: patent publication US20230002357A1, “7-PYRIMIDINE-2-YL-OXY-INDAZOLE DERIVATIVES AND THEIR USE AS HERBICIDES” (SYNGENTA CROP PROTECTION AG, priority 2019, published 2023)
